In patent US11173160B2 (UNIVERSITY OF PITTSBURGH—OF THE COMMONWEALTH SYSTEM OF …, priority 2019, dated 2021):
Where two headings read alike, the source gives them in different places.

What was measured:
[1] = system: DIPG-IV cells overexpressing ERK5 and constitutively active ERK5; experiment: EC50 of TG02 in DIPG-IV cells expressing ERK5-HA or ERK5-HA T733E; type: cell-based, human
Protocol: Direct cell counts were performed using the Countess II FL Automated Cell Counter (ThermoFisher Scientific). Alamar blue viability (ThermoFisher Scientific) and the 5-bromo-2′-deoxyuridine (BrdU) incorporated cell proliferation assay (Cell Signaling Technology Cat #6813) were performed using the manufacturer's standard protocol. EC50 curve analysis was performed using raw fluorescent Alamar blue values that were inputted into PRISM 7.0. Drug concentrations were log 10 transformed and values normalized to percent viability with respect to vehicle treated cells. EC50 values were interpolated from a log inhibitor vs. normalized response with variable slope using a least square fit model.

ERK5 = ERK5 (Homo sapiens, UniProt Q13164); experiment: in vitro kinase assay of purified recombinant ERK5 and MYC; type: biochemical; conditions: ERK5 and ATP, 30 minutes at 30° C.
Protocol: Purified active recombinant ERK5 protein was purchased from ThermoFisher Scientific (Cat #A32872) and purified recombinant MYC was purchased from Abcam (Cat #ab84132). Purified ERK5 and MYC were resuspended in 40 μl of 1× kinase buffer supplemented with […] ATP, 0.25 μg substrate, and 1.0 μg purified recombinant and active kinase. Samples were incubated in the presence or absence of an ERK5 inhibitor for 30 minutes at 30° C. The reaction was terminated with 20 μl 3×SDS sample buffer. Samples were then boiled at 100° C. for 5 minutes and then evaluated by western blotting using a phospho MYC ser62 antibody (1:1000). 1× Kinase Buffer recipe: 25 mM Tris (pH 7.5), 5 mM O-glycerophosphate, 2 mM DTT, 0.1 mM Na3VO4, 10 mM MgCl2.

[2] = system: six adult patient-derived glioblastoma cell lines (e.g., BT228, BT286, BT145); experiment: radiation therapy and TG02 in adult glioblastoma cell lines; type: cell-based, human; conditions: TG02 between 100 and 250 nM
Protocol: Cell viability was assessed on Day 5.

tumor cells (DIPG) = experiment: cell viability with TG02 and radiation (cell count/trypan blue); type: cell-based; conditions: day 5
Protocol: Cells were plated on day 1 (1×10^6). […] On day 5, cell viability were measured by cell count/trypan blue assay on thermo cell countess machines. For fractionated rad, additional 1.8 Gy doses were given on days 3 and 4. […] Therefore, the combination of TG02 and radiation can provide significant, synergistic benefits for treating DIPG as compared to when TG02 and radiation are administered alone.

TYK2 = TYK2 (Homo sapiens, UniProt P29597); conditions: Source Invitrogen; 10-point titration in duplicates, done once; cited from earlier work
Fyn = Fyn (Homo sapiens, UniProt P06241); conditions: Source Millipore; 10-point titration in duplicates, done once; cited from earlier work
TYRO3 = TYRO3 (Homo sapiens, UniProt Q06418); conditions: Source Invitrogen; 10-point titration in duplicates, done once; cited from earlier work
CDK4 = CDK4 (Homo sapiens, UniProt P11802); conditions: cited from earlier work
[3] = cited from earlier work
[4] = cited from earlier work; remark: listed apart in the source
c-Raf = c-Raf (Homo sapiens, UniProt P04049); conditions: cited from earlier work
DYRKIB = DYRKIB (Homo sapiens, UniProt Q9Y463); conditions: cited from earlier work
EGFR = EGFR (Homo sapiens, UniProt P00533); conditions: cited from earlier work
GSK3α = GSK3α (Homo sapiens, UniProt P49840); conditions: cited from earlier work
IGF-1R = IGF-1R (Homo sapiens, UniProt P08069); conditions: cited from earlier work
IRAK4 = IRAK4 (Homo sapiens, UniProt Q9NWZ3); conditions: cited from earlier work
JAK3 = JAK3 (Homo sapiens, UniProt P52333); conditions: cited from earlier work
KDR = KDR (Homo sapiens, UniProt P35968); conditions: cited from earlier work
MAPKAP-K2 = MAPKAP-K2 (Homo sapiens, UniProt P49137); conditions: cited from earlier work
MEK1 = MEK1 (Homo sapiens, UniProt Q02750); conditions: cited from earlier work
Nek2 = Nek2 (Homo sapiens, UniProt P51955); conditions: cited from earlier work
p38α = p38α (Homo sapiens, UniProt Q16539); conditions: cited from earlier work
PAK3 = PAK3 (Homo sapiens, UniProt O75914); conditions: cited from earlier work
PKBα = PKBα (Homo sapiens, UniProt P31749); conditions: cited from earlier work
PLK1 = PLK1 (Homo sapiens, UniProt P53350); conditions: cited from earlier work
PLK3 = PLK3 (Homo sapiens, UniProt Q9H4B4); conditions: cited from earlier work
PRAK = PRAK (Homo sapiens, UniProt Q8IW41); conditions: cited from earlier work
ZAP-70 = ZAP-70 (Homo sapiens, UniProt P43403); conditions: cited from earlier work
[5] = cited from earlier work; remark: listed apart in the source

Sequence of p38α (Q16539 whole entry): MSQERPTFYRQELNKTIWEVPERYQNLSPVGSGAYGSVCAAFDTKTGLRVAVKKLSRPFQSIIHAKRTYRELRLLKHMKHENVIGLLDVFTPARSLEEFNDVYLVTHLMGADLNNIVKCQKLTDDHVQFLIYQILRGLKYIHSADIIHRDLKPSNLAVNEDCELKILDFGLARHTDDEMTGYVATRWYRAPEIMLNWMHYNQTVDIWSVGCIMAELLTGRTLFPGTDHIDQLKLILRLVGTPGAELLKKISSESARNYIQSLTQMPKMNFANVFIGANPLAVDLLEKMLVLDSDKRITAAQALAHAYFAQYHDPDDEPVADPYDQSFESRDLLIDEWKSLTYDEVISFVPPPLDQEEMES
Sequence of GSK3α (P49840 whole entry): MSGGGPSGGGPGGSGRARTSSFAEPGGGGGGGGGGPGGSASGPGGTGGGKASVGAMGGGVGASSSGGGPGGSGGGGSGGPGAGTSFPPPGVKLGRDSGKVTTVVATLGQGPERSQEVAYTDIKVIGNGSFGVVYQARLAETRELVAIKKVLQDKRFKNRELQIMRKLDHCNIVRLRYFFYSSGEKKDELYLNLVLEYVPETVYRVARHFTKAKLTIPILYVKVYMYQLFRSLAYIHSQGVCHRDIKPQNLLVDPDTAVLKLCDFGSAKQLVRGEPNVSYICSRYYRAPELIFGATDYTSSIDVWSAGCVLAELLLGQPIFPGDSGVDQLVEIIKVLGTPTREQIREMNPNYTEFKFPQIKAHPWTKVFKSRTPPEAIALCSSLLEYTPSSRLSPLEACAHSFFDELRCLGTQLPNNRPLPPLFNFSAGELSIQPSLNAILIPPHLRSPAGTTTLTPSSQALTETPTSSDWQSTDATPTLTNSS
Sequence of MEK1 (Q02750 whole entry): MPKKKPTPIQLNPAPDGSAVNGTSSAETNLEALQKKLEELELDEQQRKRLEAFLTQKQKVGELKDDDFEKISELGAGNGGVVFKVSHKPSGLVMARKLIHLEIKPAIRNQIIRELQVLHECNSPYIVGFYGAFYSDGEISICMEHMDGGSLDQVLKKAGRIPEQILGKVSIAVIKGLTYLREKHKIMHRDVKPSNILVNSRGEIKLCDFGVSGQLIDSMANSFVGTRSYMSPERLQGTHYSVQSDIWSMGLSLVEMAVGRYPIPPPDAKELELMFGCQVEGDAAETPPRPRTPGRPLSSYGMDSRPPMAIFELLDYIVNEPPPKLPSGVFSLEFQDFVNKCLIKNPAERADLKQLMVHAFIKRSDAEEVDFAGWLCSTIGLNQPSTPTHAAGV
Sequence of IRAK4 (Q9NWZ3 whole entry): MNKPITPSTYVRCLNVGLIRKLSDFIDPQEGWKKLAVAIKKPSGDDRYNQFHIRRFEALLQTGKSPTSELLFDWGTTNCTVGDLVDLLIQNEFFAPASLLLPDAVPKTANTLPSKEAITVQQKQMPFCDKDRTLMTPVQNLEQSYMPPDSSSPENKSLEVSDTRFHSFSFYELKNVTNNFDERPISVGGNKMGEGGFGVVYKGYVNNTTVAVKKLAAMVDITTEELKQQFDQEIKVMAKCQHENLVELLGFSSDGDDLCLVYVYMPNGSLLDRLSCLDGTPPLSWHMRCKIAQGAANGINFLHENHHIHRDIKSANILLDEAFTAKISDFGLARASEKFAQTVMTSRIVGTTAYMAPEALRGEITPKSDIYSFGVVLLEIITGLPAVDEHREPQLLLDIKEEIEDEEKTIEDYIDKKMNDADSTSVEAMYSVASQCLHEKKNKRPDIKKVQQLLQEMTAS
Sequence of PKBα (P31749 whole entry, species assumed): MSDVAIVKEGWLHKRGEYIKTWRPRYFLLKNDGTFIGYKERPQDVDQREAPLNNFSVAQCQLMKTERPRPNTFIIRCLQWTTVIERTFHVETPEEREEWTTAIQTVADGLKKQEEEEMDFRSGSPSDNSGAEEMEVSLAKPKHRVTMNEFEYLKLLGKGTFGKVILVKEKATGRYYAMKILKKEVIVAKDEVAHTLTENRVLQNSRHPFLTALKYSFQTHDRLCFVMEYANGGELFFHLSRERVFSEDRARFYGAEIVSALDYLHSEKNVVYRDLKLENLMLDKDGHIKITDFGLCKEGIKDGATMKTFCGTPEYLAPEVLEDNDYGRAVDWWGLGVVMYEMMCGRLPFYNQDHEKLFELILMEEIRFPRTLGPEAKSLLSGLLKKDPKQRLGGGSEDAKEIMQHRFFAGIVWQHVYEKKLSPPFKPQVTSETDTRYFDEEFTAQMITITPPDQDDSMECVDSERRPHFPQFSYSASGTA
Sequence of TYK2 (P29597 whole entry): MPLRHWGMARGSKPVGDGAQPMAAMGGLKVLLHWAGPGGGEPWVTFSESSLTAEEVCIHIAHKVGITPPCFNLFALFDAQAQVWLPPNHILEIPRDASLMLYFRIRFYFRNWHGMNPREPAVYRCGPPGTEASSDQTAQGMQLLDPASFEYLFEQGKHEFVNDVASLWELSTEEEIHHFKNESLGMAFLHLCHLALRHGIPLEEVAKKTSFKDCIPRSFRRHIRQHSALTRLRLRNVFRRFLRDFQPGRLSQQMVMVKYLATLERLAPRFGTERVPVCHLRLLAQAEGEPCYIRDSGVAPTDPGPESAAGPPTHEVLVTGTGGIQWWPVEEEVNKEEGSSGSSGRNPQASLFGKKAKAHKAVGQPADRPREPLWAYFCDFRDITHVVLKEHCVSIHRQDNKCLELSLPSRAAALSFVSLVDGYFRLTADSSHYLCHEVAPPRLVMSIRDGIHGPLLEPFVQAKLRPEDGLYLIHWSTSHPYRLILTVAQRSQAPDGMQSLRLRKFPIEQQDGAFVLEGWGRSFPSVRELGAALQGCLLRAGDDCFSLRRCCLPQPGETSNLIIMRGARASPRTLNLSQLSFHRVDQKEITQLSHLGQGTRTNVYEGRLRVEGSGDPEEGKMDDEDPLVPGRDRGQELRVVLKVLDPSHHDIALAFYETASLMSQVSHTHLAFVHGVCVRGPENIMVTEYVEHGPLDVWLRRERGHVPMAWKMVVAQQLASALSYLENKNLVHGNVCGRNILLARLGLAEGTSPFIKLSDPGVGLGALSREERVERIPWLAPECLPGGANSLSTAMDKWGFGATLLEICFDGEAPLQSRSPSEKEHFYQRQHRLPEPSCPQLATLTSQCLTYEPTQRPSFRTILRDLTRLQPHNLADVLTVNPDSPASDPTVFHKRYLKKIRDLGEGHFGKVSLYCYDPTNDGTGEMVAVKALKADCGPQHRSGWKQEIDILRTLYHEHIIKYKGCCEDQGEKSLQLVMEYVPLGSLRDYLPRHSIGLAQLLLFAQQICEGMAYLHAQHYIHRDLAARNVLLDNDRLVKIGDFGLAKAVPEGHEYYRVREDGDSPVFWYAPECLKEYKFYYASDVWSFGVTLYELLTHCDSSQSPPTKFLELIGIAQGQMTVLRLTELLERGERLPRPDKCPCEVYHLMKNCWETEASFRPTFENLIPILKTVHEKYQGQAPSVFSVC
Sequence of EGFR (P00533 25-1210): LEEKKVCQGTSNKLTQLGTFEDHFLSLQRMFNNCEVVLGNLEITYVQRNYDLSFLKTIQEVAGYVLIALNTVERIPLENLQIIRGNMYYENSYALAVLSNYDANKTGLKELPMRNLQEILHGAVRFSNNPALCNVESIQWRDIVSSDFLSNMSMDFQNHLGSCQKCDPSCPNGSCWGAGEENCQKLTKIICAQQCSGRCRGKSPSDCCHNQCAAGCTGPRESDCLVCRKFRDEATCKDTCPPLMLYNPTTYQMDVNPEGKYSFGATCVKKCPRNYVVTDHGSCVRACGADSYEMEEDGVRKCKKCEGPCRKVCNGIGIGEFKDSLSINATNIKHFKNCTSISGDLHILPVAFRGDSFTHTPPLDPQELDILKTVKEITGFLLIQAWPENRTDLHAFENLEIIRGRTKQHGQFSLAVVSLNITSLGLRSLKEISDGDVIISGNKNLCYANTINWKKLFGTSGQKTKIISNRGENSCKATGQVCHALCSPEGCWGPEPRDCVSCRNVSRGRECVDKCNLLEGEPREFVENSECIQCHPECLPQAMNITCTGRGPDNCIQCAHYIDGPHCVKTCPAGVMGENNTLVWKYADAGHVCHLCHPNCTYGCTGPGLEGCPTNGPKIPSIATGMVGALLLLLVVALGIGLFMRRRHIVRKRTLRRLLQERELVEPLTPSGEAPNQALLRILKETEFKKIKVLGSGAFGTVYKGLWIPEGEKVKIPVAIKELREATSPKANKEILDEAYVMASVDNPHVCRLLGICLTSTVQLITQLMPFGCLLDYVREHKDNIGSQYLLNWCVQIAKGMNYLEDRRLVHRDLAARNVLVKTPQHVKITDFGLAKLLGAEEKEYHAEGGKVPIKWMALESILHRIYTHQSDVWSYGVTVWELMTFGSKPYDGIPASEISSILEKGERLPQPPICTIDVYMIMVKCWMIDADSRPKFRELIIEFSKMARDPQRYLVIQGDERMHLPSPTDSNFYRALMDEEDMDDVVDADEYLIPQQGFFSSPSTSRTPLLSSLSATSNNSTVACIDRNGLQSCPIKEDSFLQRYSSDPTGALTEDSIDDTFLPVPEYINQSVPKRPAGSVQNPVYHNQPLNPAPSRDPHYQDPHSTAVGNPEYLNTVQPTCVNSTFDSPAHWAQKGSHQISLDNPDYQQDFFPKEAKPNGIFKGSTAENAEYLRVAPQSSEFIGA
Sequence of PRAK (Q8IW41 whole entry, species assumed): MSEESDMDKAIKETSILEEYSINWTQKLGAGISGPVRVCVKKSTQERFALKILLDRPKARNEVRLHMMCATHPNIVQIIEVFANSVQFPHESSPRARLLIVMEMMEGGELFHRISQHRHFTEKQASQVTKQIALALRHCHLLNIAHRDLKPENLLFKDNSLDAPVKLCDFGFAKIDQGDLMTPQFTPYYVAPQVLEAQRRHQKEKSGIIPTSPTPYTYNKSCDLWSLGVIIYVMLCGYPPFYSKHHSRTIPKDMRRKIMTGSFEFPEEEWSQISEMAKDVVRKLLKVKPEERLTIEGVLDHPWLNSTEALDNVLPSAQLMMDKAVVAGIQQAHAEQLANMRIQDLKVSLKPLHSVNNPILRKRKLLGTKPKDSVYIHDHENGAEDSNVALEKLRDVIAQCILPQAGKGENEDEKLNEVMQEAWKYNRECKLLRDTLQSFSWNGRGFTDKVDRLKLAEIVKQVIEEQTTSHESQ

Compound: CN1C/C=C/CCOc2cccc(c2)-c2ccnc(n2)Nc2cccc(c2)C1 [TG02, (16E)-14-methyl-20-oxa-5,7,14,27-tetraazatetracyclo[19.3.1.12,6.18,12]heptacosa-1(25),2(27),3,5,8(26),9,11,16,21,23-decaene]
- EC50 ([1]; Homo sapiens, read-out: EC50 to treatment with TG02, overexpression of ERK5 and constitutively active ERK in DIPG-IV cells): > 1000 nM
- cleaved Caspase 3/7 levels ([1]; TG02 100 nM, ERK5-HA or ERK5-HA T733E vs empty vector): reduced cleaved Caspase 3/7 levels
- phosphorylation of MYC(S62) by ERK5 (ERK5): inhibited
- effect of combining radiation therapy (RT) and TG02 [2]: mostly a synergistic effect
- tumor cell viability, TG02 alone (tumor cells (DIPG); vehicle control about 100%): 50%
- tumor cell viability, TG02 and radiation (tumor cells (DIPG); radiation 3 fractions of 1.8 Gy): about 25%
- IC50 (TYK2): 14 nM
- IC50 (Fyn): 15 nM
- IC50 (TYRO3): 36 nM
- inhibition at 100 nm (CDK4): less than 50%
- inhibition at 100 nm [3]: less than 50%
- inhibition at 100 nm [4]: less than 50%
- inhibition at 100 nm (c-Raf): less than 50%
- inhibition at 100 nm (DYRKIB): less than 50%
- inhibition at 100 nm (EGFR): less than 50%
- inhibition at 100 nm (GSK3α): less than 50%
- inhibition at 100 nm (IGF-1R): less than 50%
- inhibition at 100 nm (IRAK4): less than 50%
- inhibition at 100 nm (JAK3): less than 50%
- inhibition at 100 nm (KDR): less than 50%
- inhibition at 100 nm (MAPKAP-K2): less than 50%
- inhibition at 100 nm (MEK1): less than 50%
- inhibition at 100 nm (Nek2): less than 50%
- inhibition at 100 nm (p38α): less than 50%
- inhibition at 100 nm (PAK3): less than 50%
- inhibition at 100 nm (PKBα): less than 50%
- inhibition at 100 nm (PLK1): less than 50%
- inhibition at 100 nm (PLK3): less than 50%
- inhibition at 100 nm (PRAK): less than 50%
- inhibition at 100 nm (ZAP-70): less than 50%
- dose-limiting toxicities (DLTs), DD regimen ([5]; human, in vivo): grade 3 diarrhea (n=1) at 200 mg of TG02, and grade 4 neutropenia and grade 3 increase in ALT (n=1) at 250 mg of TG02
- dose-limiting toxicities (DLTs), MN regimen ([5]; human, in vivo): grade 4 lymphopenia (n=2) and increase in ALT (n=1) at 250 mg of TG02
- MTD, metronomic (MN) temozolomide regimen ([5]; temozolomide 50 mg/m^2): 200 mg
- MTD, dose-dense (DD) temozolomide regimen ([5]; temozolomide 125 m/m^2 per day 7 days on/7 days off): 250 mg
